Results: the NIST ThermoML archive (doi:10.1016/j.fluid.2012.08.024)
± gives the expanded uncertainty stated by the source.

Tests used:
[1] = mn = molality of the nth substance listed, in mol/kg; conditions: 298.15 K, 101 kPa, Liquid; for molar conductivity: Alternating current cell with electrodes; for mass density: Vibrating tube method
[2] = refractive index (Na D-line) (dimensionless); mn = molality of the nth substance listed, in mol/kg; conditions: 298.15 K, 101 kPa, Liquid, Standard Abbe refractometry

CCCCCCn1cc[n+](C)c1.[Br-] [3-hexyl-1-methyl-1H-imidazolium bromide] + O
[1]
Conditions	mass density [kg/m3]	molar conductivity [S·m2/mol]
m1 = 0.1017	1001.8 ± 0.29	–
m1 = 0.2038	1006.13 ± 0.3	–
m1 = 0.3005	1010.26 ± 0.3	–
m1 = 0.3716	–	0.01169 ± 4.2e-05
m1 = 0.4033	1014.58 ± 0.31	–
m1 = 0.9047	–	0.01149 ± 4.2e-05
m1 = 1.268	–	0.01134 ± 4.2e-05
m1 = 1.963	–	0.01117 ± 4.2e-05
m1 = 2.512	–	0.01099 ± 4.2e-05
m1 = 3.102	–	0.01085 ± 4.2e-05
m1 = 3.708	–	0.01072 ± 4.2e-05
m1 = 4.273	–	0.01055 ± 4.2e-05
m1 = 4.944	–	0.01044 ± 4.2e-05
m1 = 5.55	–	0.01034 ± 4.2e-05

O=C[C@H](O)[C@@H](O)[C@H](O)[C@H](O)CO [D-glucose] + O
Conditions	mass density, [1] [kg/m3]	refractive index, [2]
m1 = 0.0104	997.75 ± 0.29	1.3328 ± 0.0004
m1 = 0.03	999.09 ± 0.29	1.3334 ± 0.0004
m1 = 0.05	1000.45 ± 0.29	1.3339 ± 0.0004
m1 = 0.0705	1001.83 ± 0.29	1.3343 ± 0.0004
m1 = 0.0899	1003.13 ± 0.29	1.3349 ± 0.0004
m1 = 0.1102	1004.48 ± 0.3	1.3352 ± 0.0004
m1 = 0.1301	–	1.3357 ± 0.0004
m1 = 0.1496	–	1.3361 ± 0.0004
m1 = 0.1691	–	1.3366 ± 0.0004
